In patent US8637536B2, “Pyrimidinone compounds for use in the treatment of diseases or conditions mediated by Lp-PLA2” (Glaxo Group Limited, priority 2010, dated 2014):
Structures can show the parent of a compound that is named as a salt. Where two headings read alike, the source gives them in different places.

Target: T1, recombinant human Lp-PLA2 (Homo sapiens, UniProt Q13093)
T1 sequence (Q13093 22-441): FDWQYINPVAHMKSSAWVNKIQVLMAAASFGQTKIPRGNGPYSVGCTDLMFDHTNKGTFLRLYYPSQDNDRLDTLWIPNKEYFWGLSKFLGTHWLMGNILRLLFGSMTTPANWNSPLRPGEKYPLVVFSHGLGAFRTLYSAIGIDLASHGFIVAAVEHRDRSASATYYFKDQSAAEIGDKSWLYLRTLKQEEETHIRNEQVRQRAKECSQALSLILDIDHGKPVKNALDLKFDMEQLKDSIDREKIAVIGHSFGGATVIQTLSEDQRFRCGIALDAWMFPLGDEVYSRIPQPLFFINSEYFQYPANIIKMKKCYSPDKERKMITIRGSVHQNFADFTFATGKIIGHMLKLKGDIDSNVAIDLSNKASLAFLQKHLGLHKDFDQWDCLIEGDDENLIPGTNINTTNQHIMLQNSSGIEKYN
Assay: Recombinant human Lp-PLA2 assay (rhLp-PLA2, PED6 assay)
Type: biochemical
From the text: (1) Recombinant Human Lp-PLA2 Assay (rhLp-PLA2) (Also Referred to as “PED6” Assay)
N-((6-(2,4-dinitrophenyl)amino)-hexanoyl)-2-(4,4-difluoro-5,7-dimethyl-4-bora-3a,4a-diaza-s-indacene-3-pentanoyl)-1-hexadecanoyl-sn-glycero-3-phosphoethanolamine, triethylammonium salt (PED6) is a commercially available fluorescently-labelled phospholipid, which is commercially available from Molecular Probes. There is a quenching […] position and a Bodipy fluorescein (FL) group in the sn2 position.
The PED6 assay was run as an unquenched 10 μL assay. Compounds source plate was prepared by making 1:3 (by volume) serial dilution of the compounds into pure DMSO on 384-well microplate. […] 5 μL of recombinant human Lp-PLA2 enzyme (2 nM rhLp-PLA2 in assay buffer of 50 mM HEPES, pH7.4, 150 mM NaCl, 1 mM CHAPS) was added to each well of the plate with compounds. Plates were centrifuged for 10 sec at 500 rpm. […] Plates were centrifuged for 10 sec at 500 rpm. Plate was covered to protect from light and incubated for 20 min at room temperature. […] PIC50 data, curve and QC analysis was conducted by using XL fit module in Excel.

[1] = text thresholds, upper limit for pIC50 in this assay is 9.3, read-out: pIC50 values in the PED6 assay (converted)
[2] = upper limit for pIC50 obtained in this PED6 assay is 9.3, read-out: rhLp-PLA2 (PED6 assay) (pIC50) (converted)

SMILES | IC50 [1] | IC50 [2]
O=c1nc(NCCc2ccc(Oc3ccc(Cl)c(C(F)(F)F)c3)cc2)[nH]cc1Cc1cncnc1 [E11, 2-{[2-(4-{[4-Chloro-3-(trifluoromethyl)phenyl]oxy}phenyl)ethyl]amino}-5-(5-pyrimidinylmethyl)-4(1H)-pyrimidinone] | ≤ 1 nM | 1 nM
Cn1cc(Cc2c[nH]c(OCCc3ccc(Oc4ccc(Cl)c(C(F)(F)F)c4)cc3)nc2=O)cn1 [E22, 2-{[2-(4-{[4-Chloro-3-(trifluoromethyl)phenyl]oxy}phenyl)ethyl]oxy}-5-[(1-methyl-1H-pyrazol-4-yl)methyl]-4(1H)-pyrimidinone trifluoroacetate] |  | 0.794 nM
COc1ncc(Cc2c[nH]c(OCCc3ccc(Oc4ccc(Cl)c(C(F)(F)F)c4)cc3)nc2=O)cn1 [E24, 2-{[2-(4-{[4-Chloro-3-(trifluoromethyl)phenyl]oxy}phenyl)ethyl]oxy}-5-{[2-(methyloxy)-5-pyrimidinyl]methyl}-4(1H)-pyrimidinone] | ≤ 1 nM | 0.794 nM
COc1ncc(Cc2cn(C)c(OCCc3ccc(Oc4ccc(Cl)c(C(F)(F)F)c4)cc3)nc2=O)cn1 [E25, 2-{[2-(4-{[4-Chloro-3-(trifluoromethyl)phenyl]oxy}phenyl)ethyl]oxy}-1-methyl-5-{[2-(methyloxy)-5-pyrimidinyl]methyl}-4(1H)-pyrimidinone] | ≤ 1 nM | 
O=c1nc(OCCc2cc(F)c(Oc3ccc(Cl)c(C(F)(F)F)c3)c(F)c2)[nH]cc1Cc1cncnc1 [E29, 2-{[2-(4-{[4-Chloro-3-(trifluoromethyl)phenyl]oxy}-3,5-difluorophenyl)ethyl]oxy}-5-(5-pyrimidinylmethyl)-4(1H)-pyrimidinone] | ≤ 1 nM | 
Cn1cc(Cc2cncnc2)c(=O)nc1OCCc1cc(F)c(Oc2ccc(Cl)c(C(F)(F)F)c2)c(F)c1 [E30, 2-{[2-(4-{[4-Chloro-3-(trifluoromethyl)phenyl]oxy}-3,5-difluorophenyl)ethyl]oxy}-1-methyl-5-(5-pyrimidinylmethyl)-4(1H)-pyrimidinone] | ≤ 1 nM | 
O=c1nc(OCCc2ccc(Oc3ccc(Cl)c(C(F)(F)F)c3)c(F)c2)[nH]cc1Cc1cncnc1 [E31, 2-{[2-(4-{[4-Chloro-3-(trifluoromethyl)phenyl]oxy}-3-fluorophenyl)ethyl]oxy}-5-(5-pyrimidinylmethyl)-4(1H)-pyrimidinone trifluoroacetate] | ≤ 1 nM | 
COc1ncc(Cc2c[nH]c(SCc3ccc(Oc4ccc(F)cc4)cc3)nc2=O)cn1 [E52, 2-((4-(4-fluorophenoxy)benzyl)thio)-5-((2-methoxypyrimidin-5-yl)methyl)pyrimidin-4(1H)-one] | ≤ 10 nM | 
COc1ncc(Cc2cn(C)c(SCc3ccc(Oc4ccc(F)cc4)cc3)nc2=O)cn1 [E53, 2-[({4-[(4-fluorophenyl)oxy]phenyl}methyl)thio]-1-methyl-5-{[2-(methyloxy)-5-pyrimidinyl]methyl}-4(1H)-pyrimidinone] | ≤ 10 nM | 
Cn1cc(Cc2c[nH]c(SCc3ccc(Oc4ccc(Cl)c(C(F)(F)F)c4)c(C#N)c3)nc2=O)cn1 [E58, 2-(4-chloro-3-(trifluoromethyl)phenoxy)-5-(((5-((1-methyl-1H-pyrazol-4-yl)methyl)-4-oxo-1,4-dihydropyrimidin-2-yl)thio)methyl)benzonitrile, trifluoroacetic acid salt] | ≤ 1 nM | ≤ 0.501 nM
Cn1cc(Cc2cn(C)c(SCc3ccc(Oc4ccc(F)c(C(F)(F)F)c4)c(C#N)c3)nc2=O)cn1 [E60, 2-(4-fluoro-3-(trifluoromethyl)phenoxy)-5-(((1-methyl-5-((1-methyl-1H-pyrazol-4-yl)methyl)-4-oxo-1,4-dihydropyrimidin-2-yl)thio)methyl)benzonitrile, trifluoroacetic acid salt] | ≤ 1 nM | 
CCc1cn(C)c(SCc2ccc(Oc3ccc(Cl)c(C(F)(F)F)c3)c(C#N)c2)nc1=O [E64, 2-{[4-chloro-3-(trifluoromethyl)phenyl]oxy}-5-{[(5-ethyl-1-methyl-4-oxo-1,4-dihydro-2-pyrimidinyl)thio]methyl}benzonitrile] | ≤ 10 nM | 
COc1ncc(Cc2c[nH]c(SCc3ccc(Oc4ccc(Cl)c(C(F)(F)F)c4)cc3)nc2=O)cn1 [E74, 2-{[(4-{[4-chloro-3-(trifluoromethyl)phenyl]oxy}phenyl)methyl]thio}-5-{[2-(methyloxy)-5-pyrimidinyl]methyl}-4(1H)-pyrimidinone] | ≤ 1 nM | 0.631 nM
Cn1cc(Cc2c[nH]c(SCc3ccc(Oc4ccc(Cl)c(C(F)(F)F)c4)c(C#N)c3)nc2=O)c2ccccc21 [E81, 2-(4-chloro-3-(trifluoromethyl)phenoxy)-5-(((5-((1-methyl-1H-indol-3-yl)methyl)-4-oxo-1,4-dihydropyrimidin-2-yl)thio)methyl)benzonitrile] |  | 25.1 nM
COc1ncc(Cc2c[nH]c(SCc3ccc(Oc4ccc(F)c(C(F)(F)F)c4)c(C#N)c3)nc2=O)cn1 [E89, 2-{[4-fluoro-3-(trifluoromethyl)phenyl]oxy}-5-{[(5-{[2-(methyloxy)-5-pyrimidinyl]methyl}-4-oxo-1,4-dihydro-2-pyrimidinyl)thio]methyl}benzonitrile] | ≤ 1 nM | 
N#Cc1cc(CSc2nc(=O)c(Cc3cncnc3)c[nH]2)ccc1Oc1cccc(C(F)(F)F)c1 [E96, 5-({[4-oxo-5-(5-pyrimidinylmethyl)-1,4-dihydro-2-pyrimidinyl]thio}methyl)-2-{[3-(trifluoromethyl)phenyl]oxy}benzonitrile] | ≤ 1 nM | 
COc1ncc(Cc2c[nH]c(SCc3ccc(Oc4cccc(C(F)(F)F)c4)c(C#N)c3)nc2=O)cn1 [E100, 5-{[(5-{[2-(methyloxy)-5-pyrimidinyl]methyl}-4-oxo-1,4-dihydro-2-pyrimidinyl)thio]methyl}-2-{[3-(trifluoromethyl)phenyl]oxy}benzonitrile] | ≤ 1 nM | 
Cn1cc(Cc2c[nH]c(SCCc3ccc(Oc4ccc(Cl)c(C(F)(F)F)c4)cc3)nc2=O)cn1 [E112] |  | ≤ 0.501 nM
Cn1cc(Cc2cncnc2)c(=O)nc1SCCc1ccc(Oc2ccc(Cl)c(C(F)(F)F)c2)cc1 [E116, 2-{[2-(4-{[4-chloro-3-(trifluoromethyl)phenyl]oxy}phenyl)ethyl]thio}-1-methyl-5-(5-pyrimidinylmethyl)-4(1H)-pyrimidinone] | ≤ 1 nM | 
N#Cc1cc(CCSc2nc(=O)c(Cc3cncnc3)c[nH]2)ccc1Oc1ccc(Cl)c(C(F)(F)F)c1 [E118, 2-{[4-chloro-3-(trifluoromethyl)phenyl]oxy}-5-(2-{[4-oxo-5-(5-pyrimidinylmethyl)-1,4-dihydro-2-pyrimidinyl]thio}ethyl)benzonitrile] | ≤ 1 nM | 
COc1ncc(Cc2c[nH]c(SCCc3ccc(Oc4ccc(Cl)c(C(F)(F)F)c4)c(C#N)c3)nc2=O)cn1 [E119, 2-{[4-chloro-3-(trifluoromethyl)phenyl]oxy}-5-{2-[(5-{[2-(methyloxy)-5-pyrimidinyl]methyl}-4-oxo-1,4-dihydro-2-pyrimidinyl)thio]ethyl}benzonitrile] | ≤ 1 nM | 
O=c1nc(OCCc2ccc(Oc3ccc(Cl)c(C(F)(F)F)c3)cc2)[nH]cc1Cc1c(F)cc(F)cc1F [E129, 2-{[2-(4-{[4-chloro-3-(trifluoromethyl)phenyl]oxy}phenyl)ethyl]oxy}-5-[(2,4,6-trifluorophenyl)methyl]-4(1H)-pyrimidinone] |  | 3.98 nM
COc1ncc(Cc2c[nH]c(OCCc3ccc(Oc4ccc(C(F)(F)F)cn4)cc3)nc2=O)cn1 [E137, 5-((2-methoxypyrimidin-5-yl)methyl)-2-(4-((5-(trifluoromethyl)pyridin-2-yl)oxy)phenethoxy)pyrimidin-4(1H)-one] | ≤ 10 nM | 
COc1ncc(Cc2c[nH]c(OCCc3ccc(Oc4c(F)cc(Cl)cc4F)cc3)nc2=O)cn1 [E181, 2-(4-(4-chloro-2,6-difluorophenoxy)phenethoxy)-5-((2-methoxypyrimidin-5-yl)methyl)pyrimidin-4(1H)-one] | ≤ 10 nM | 
